Tests used:
[1] = system: ISH224-N1C0 recombinant β-galactoside-α2,3-sialyltransferase; test: Acceptor substrate specificity of recombinant β-galactoside-α2,3-sialyltransferase (mono-, di-, trisaccharides); format: biochemical, Photobacterium sp.
From the text: (§1) Cell homogenates prepared from E. coli cells introduced with the third clone of ISH467-N2C0, the first clone of ISH224-N1C0 and the first clone of FAJ-N1C0 were each purified by ion exchange chromatography and hydroxyapatite chromatography to give an electrophoretically single band. The thus purified β-galactoside-α2,3-sialyltransferases were used in the following experiment in order to examine the presence or absence of sialyltransferase activity toward various monosaccharides, disaccharides and trisaccharides.
(§2) A reaction solution (24 μl) was prepared to contain CMP-^14C-NeuAc-containing CMP-NeuAc as a glycosyl donor substrate ([…], final concentration in the reaction solution: […]), any of various glycosyl acceptor substrates dissolved in 20 mM cacodylate buffer (pH 5.0) (1 μmol, final concentration in the reaction solution: 42 mM), sialyltransferase (in an amount as indicated in the footnotes of the tables below) and NaCl (final concentration in the reaction solution: 500 mM), and reacted under conditions as indicated in the footnotes of the tables below. The monosaccharides used as glycosyl acceptor substrates were the following 10 types: methyl-α-D-galactopyranoside (Gal-α-OMe), methyl-(β-D-galactopyranoside (Gal-β-OMe), methyl-α-D-glucopyranoside (Glc-α-OMe), methyl-β-D-glucopyranoside (Glc-β-OMe), methyl-α-D-mannopyranoside (Man-α-OMe), methyl-β-D-mannopyranoside (Man-β-OMe), methyl-α-D-fucopyranoside (Fuc-α-OMe), methyl-β-D-fucopyranoside (Fuc-β-OMe), N-acetylgalactosamine (GalNAc), and N-acetylglucosamine ([…]). The disaccharides used were the following 5 types: lactose (Gal-β1,4-Glc), N-acetyllactosamine (Gal-β1,4-GlcNAc), methyl-β-D-galactopyranosyl-β1,3-N-acetylglucosaminide (Gal-β1,3-GlcNAc-β-OMe), methyl-α-D-galactopyranosyl-α1,3-galactopyranoside (Gal-α-1,3-Gal-α-OMe), and methyl-β-D-galactopyranosyl-β1,3-galactopyranoside (Gal-β1,3-Gal-β-OMe). The trisaccharide used was 2′-fucosyllactose (Fuc-α1,2-Galβ1,4-Glc). It should be noted that the final concentration was set to 8.4 mM for the sugar chains shown in Table 18, i.e., methyl-α-D-galactopyranosyl-α1,3-galactopyranoside (Gal-α1,3-Gal-α-OMe), methyl-β-D-galactopyranosyl-β1,3-galactopyranoside (Gal-β1,3-Gal-β-OMe) and 2′-fucosyllactose (Fuc-α1,2-Gal-β1,4-Glc).
(§3) After completion of the enzymatic reaction, 1.98 ml of 5 mM phosphate buffer (pH 6.8) was added to the reaction solution to stop the enzymatic reaction. Then, the enzymatic reaction solution was diluted with 5 mM phosphate buffer (pH 6.8) and applied in a volume of 2 ml to a AG1−×2 Resin (PO4^3− form, 0.2×2 cm) column. This column was prepared as follows: AG1-x 2 Resin (OH^− form, BIO-RAD) was suspended in 1 M phosphate buffer (pH 6.8), and after 30 minutes, the resin was washed with distilled water and then suspended in distilled water. The eluate (0 to 2 ml) from this column was measured for its radioactivity. The eluate from this column contains the unreacted glycosyl acceptor substrate and the ^14C-NeuAc (N-acetylneuraminic acid)-bound reaction product which was generated by the reaction, but unreacted CMP-14C-NeuAc is still retained on the column. Thus, the radioactivity of ^14C from each sialic acid-containing sugar chain generated as a result of the enzymatic reaction arises exclusively from the reaction product, so that the radioactivity of this fraction can be used to calculate the enzyme activity.
(§4) In the manner described above, the radioactivity of NeuAc transferred to each glycosyl acceptor substrate was measured to calculate the amount of transferred sialic acid.

[2] = system: ISH467-N2C0 recombinant β-galactoside-α2,3-sialyltransferase; test: as above; format: biochemical, Photobacterium phosphoreum
From the text: as §1, §2, §3, §4

[3] = system: FAJ-N1C0 recombinant β-galactoside-α2,3-sialyltransferase; test: Acceptor substrate specificity of recombinant β-galactoside-α2,3-sialyltransferase (mono-, disaccharides); format: biochemical, Vibrio sp.; set-up: FAJ-N1C0 Sialyltransferase activity Relative activity (%): tested at 42 mM; conditions: 20° C., 14 hours; for FAJ-N1C0 Sialyltransferase activity: Table 16: 1 μmol acceptor, pH 5.0, about 2.5 mU enzyme; for FAJ-N1C0 Sialyltransferase activity Relative activity (%): Table 16: activity toward lactose set to 100
From the text: as §1, §2, §3, §4

[4] = system: α2,3-sialyltransferase derived from strain JT-ISH-467; test: Sialic acid transfer to monosaccharides and disaccharides by partially purified α2,3-sialyltransferase (CMP-14C-NeuAc donor, radioactivity of column eluate); format: biochemical, Photobacterium phosphoreum; conditions: 25° C., 4 hours, acceptor 10 μmol (200 mM), CMP-14C-NeuAc 400 nmol, sialyltransferase 0.13 mU, NaCl 500 mM
Procedure: A cell homogenate prepared from the strain JT-ISH-467 was partially purified by ion exchange chromatography, hydroxyapatite chromatography, and gel filtration chromatography. The thus partially purified α2,3-sialyltransferase was used in the following experiment in order to confirm the transfer of sialic acid to various monosaccharides and disaccharides.
The enzymatic reaction was carried out at 25° C. for 4 hours in a reaction solution (24 μl) prepared to contain CMP-^14C-NeuAc as a glycosyl donor substrate (400 nmol (15600 cpm), final concentration in the reaction solution: 16.6 mM), any of various glycosyl acceptor substrates (10 μmol, final concentration in the reaction solution: 200 mM), sialyltransferase (0.13 mU) and NaCl (final concentration in the reaction solution: 500 mM). The monosaccharides and disaccharides used as glycosyl acceptor substrates were the following 6 substances: methyl-α-D-galactopyranoside (Gal-α-OMe), methyl-β-D-galactopyranoside (Gal-β-OMe), N-acetylgalactosamine (GalNAc), lactose (Gal-β1,4-Glc), N-acetyllactosamine (Gal-β1,4-GlcNAc), and methyl-β-D-galactopyranosyl-β-1,3-N-acetylglucosaminide (Gal-β1,3-GlcNAc-β-OMe).
as §3, with “AG1-×2” for “AG1−×2”, “AG1-×2” for “AG1-x 2”, “CMP-^14C-NeuAc” for “CMP-14C-NeuAc”
as §4

[5] = Table 16: 1 μmol acceptor, pH 5.0, about 2.5 mU enzyme, 20° C., 14 hours
[6] = Table 16: activity toward lactose set to 100, 20° C., 14 hours
[7] = Table 17: 1 μmol acceptor, pH 5.0, 1.0 mU per reaction, 30° C., 0.5 minutes or 2 minutes
[8] = Table 17: activity toward lactose set to 100, 30° C., 0.5 minutes or 2 minutes
[9] = Table 17: 1 μmol acceptor, pH 5.0, 2.3 mU per reaction, 30° C., 0.5 minutes or 2 minutes

For CO[C@@H]1O[C@H](CO)[C@H](O)[C@H](O)[C@H]1O [Methylβgalactopyranoside, methyl-β-D-galactopyranoside], the “ISH224-N1C0 Sialyltransferase activity” value [1, 5] was 8.9 nmol/min, the “ISH224-N1C0 Sialyltransferase activity Relative activity (%)” value [1, 6] was 105% and the “ISH224-N1C0 Sialyltransferase activity” value [1, 7] was 3.54 nmol/min. For the same molecule, the “ISH224-N1C0 Sialyltransferase activity Relative activity (%)” value [1, 8] was 343%, the “ISH467-N2C0 Sialyltransferase activity” value [2, 5] was 9.1 nmol/min and the “ISH467-N2C0 Sialyltransferase activity Relative activity (%)” value [2, 6] was 116%. For the same molecule, the “ISH467-N2C0 Sialyltransferase activity” value [2, 9] was 5.77 nmol/min, the “ISH467-N2C0 Sialyltransferase activity Relative activity (%)” value [2, 8] was 251% and the “FAJ-N1C0 Sialyltransferase activity” value [3] was 8.7 nmol/min. The “FAJ-N1C0 Sialyltransferase activity Relative activity (%)” value [3] was 114% and the “Amount of transferred sialic acid” value [4] was 50.2 nmol.
With CC(=O)N[C@H]1C(O)O[C@H](CO)[C@H](O)[C@@H]1O (some centres unmarked) [N-Acetylgalactosamine, N-acetylgalactosamine] the “ISH224-N1C0 Sialyltransferase activity” value [1, 5] was 5.8 nmol/min, the “ISH224-N1C0 Sialyltransferase activity Relative activity (%)” value [1, 6] was 69% and the “ISH224-N1C0 Sialyltransferase activity” value [1, 7] was 0.78 nmol/min. For the same molecule, the “ISH224-N1C0 Sialyltransferase activity Relative activity (%)” value [1, 8] was 76%, the “ISH467-N2C0 Sialyltransferase activity” value [2, 5] was 5.4 nmol/min and the “ISH467-N2C0 Sialyltransferase activity Relative activity (%)” value [2, 6] was 69%. The “ISH467-N2C0 Sialyltransferase activity” value [2, 9] was 0.99 nmol/min, the “ISH467-N2C0 Sialyltransferase activity Relative activity (%)” value [2, 8] was 43% and the “FAJ-N1C0 Sialyltransferase activity” value [3] was 4.4 nmol/min. For the same molecule, the “FAJ-N1C0 Sialyltransferase activity Relative activity (%)” value [3] was 58% and the “Amount of transferred sialic acid” value [4] was 37.8 nmol.
CO[C@H]1O[C@H](CO)[C@H](O)[C@H](O)[C@H]1O [Methylαgalactopyranoside, methyl-α-D-galactopyranoside] was tested, and the “ISH224-N1C0 Sialyltransferase activity” value [1, 5] was 9.5 nmol/min, the “ISH224-N1C0 Sialyltransferase activity Relative activity (%)” value [1, 6] was 113% and the “ISH224-N1C0 Sialyltransferase activity” value [1, 7] was 8.49 nmol/min. The “ISH224-N1C0 Sialyltransferase activity Relative activity (%)” value [1, 8] was 823%, the “ISH467-N2C0 Sialyltransferase activity” value [2, 5] was 10.5 nmol/min and the “ISH467-N2C0 Sialyltransferase activity Relative activity (%)” value [2, 6] was 134%. For the same molecule, the “ISH467-N2C0 Sialyltransferase activity” value [2, 9] was 10.38 nmol/min, the “ISH467-N2C0 Sialyltransferase activity Relative activity (%)” value [2, 8] was 452% and the “FAJ-N1C0 Sialyltransferase activity” value [3] was 10.3 nmol/min. For the same molecule, the “FAJ-N1C0 Sialyltransferase activity Relative activity (%)” value [3] was 135% and the “Amount of transferred sialic acid” value [4] was 60.0 nmol.
CC(=O)N[C@H]1C(O)O[C@H](CO)[C@@H](O[C@@H]2O[C@H](CO)[C@H](O)[C@H](O)[C@H]2O)[C@@H]1O (some centres unmarked) [Lactosamine, N-acetyllactosamine] was tested, and the “ISH224-N1C0 Sialyltransferase activity” value [1, 5] was 9.7 nmol/min, the “ISH224-N1C0 Sialyltransferase activity Relative activity (%)” value [1, 6] was 115% and the “ISH224-N1C0 Sialyltransferase activity” value [1, 7] was 0.99 nmol/min. For the same molecule, the “ISH224-N1C0 Sialyltransferase activity Relative activity (%)” value [1, 8] was 96%, the “ISH467-N2C0 Sialyltransferase activity” value [2, 5] was 9.2 nmol/min and the “ISH467-N2C0 Sialyltransferase activity Relative activity (%)” value [2, 6] was 118%. The “ISH467-N2C0 Sialyltransferase activity” value [2, 9] was 2.36 nmol/min, the “ISH467-N2C0 Sialyltransferase activity Relative activity (%)” value [2, 8] was 103% and the “FAJ-N1C0 Sialyltransferase activity” value [3] was 9.6 nmol/min. For the same molecule, the “FAJ-N1C0 Sialyltransferase activity Relative activity (%)” value [3] was 127%, the “Amount of transferred sialic acid” value [4] was “highest in amount of transferred sialic acid” and the “Amount of transferred sialic acid” value ([4]; listed as Gal-β1,4-GlcNAc) was 74.9 nmol.
With CO[C@@H]1O[C@H](CO)[C@@H](O)[C@H](O[C@@H]2O[C@H](CO)[C@H](O)[C@H](O)[C@H]2O)[C@H]1NC(C)=O [methyl-β-D-galactopyranosyl-β1,3-N-acetylglucosaminide] the “ISH224-N1C0 Sialyltransferase activity” value [1, 5] was 9.4 nmol/min, the “ISH224-N1C0 Sialyltransferase activity Relative activity (%)” value [1, 6] was 111% and the “ISH224-N1C0 Sialyltransferase activity” value [1, 7] was 1.98 nmol/min. For the same molecule, the “ISH224-N1C0 Sialyltransferase activity Relative activity (%)” value [1, 8] was 192%, the “ISH467-N2C0 Sialyltransferase activity” value [2, 5] was 9.6 nmol/min and the “ISH467-N2C0 Sialyltransferase activity Relative activity (%)” value [2, 6] was 122%. The “ISH467-N2C0 Sialyltransferase activity” value [2, 9] was 2.95 nmol/min, the “ISH467-N2C0 Sialyltransferase activity Relative activity (%)” value [2, 8] was 129% and the “FAJ-N1C0 Sialyltransferase activity” value [3] was 9.4 nmol/min. For the same molecule, the “FAJ-N1C0 Sialyltransferase activity Relative activity (%)” value [3] was 124% and the “Amount of transferred sialic acid” value [4] was 71.1 nmol.
